Assay results published in article PMC2375326, “In vitro evaluation of amino acid prodrugs of novel antitumour 2-(4-amino-3-methylphenyl)benzothiazoles” (British Journal of Cancer, 2002).

Tests used:
HCT-15 = assay: NCI in vitro cytotoxicity assay (SRB), HCT-15; format: cell-based; conditions: Homo sapiens, 48 h exposure, sulforhodamine B assay, mean graph, read-out: Log10 GI50 (HCT-15) (converted)
Protocol: (§1) Cell culture and drug application procedures have been described previously ([Boyd and Paull, 1995]). Briefly, cell lines were inoculated into a series of 96-well microtiter plates, with varied seeding densities depending on growth characteristics of each cell line. Following a 24 h drug free incubation, test agents were added at five 10-fold dilutions with a maximum concentration of 100 μM. Cellular protein levels were determined after 48 h drug exposure by sulphorhodamine B colorimetry.

SF-539 = assay: NCI in vitro cytotoxicity assay (SRB), SF-539; format: cell-based; conditions: Homo sapiens, 48 h exposure, sulforhodamine B assay, mean graph, read-out: Log10 GI50 (SF-539) (converted)
Protocol: as §1

SK-OV-3 = assay: NCI in vitro cytotoxicity assay (SRB), SK-OV-3; format: cell-based; conditions: Homo sapiens, 48 h exposure, sulforhodamine B assay, mean graph, read-out: Log10 GI50 (SK-OV-3) (converted)
Protocol: as §1

M14 = assay: NCI in vitro cytotoxicity assay (SRB), M14; format: cell-based; conditions: Homo sapiens, 48 h exposure, sulforhodamine B assay, mean graph, read-out: Log10 GI50 (M14) (converted)
Protocol: as §1

[1] = test system: CYP1A1 activity (EROD) in MCF-7 cells; assay: Induction of EROD activity in lysates of treated MCF-7 cells; format: cell-based, human; conditions: lysates of MCF-7 cells treated with 1 μM, 24 h; negligible activity in untreated lysates; mean of three, s.d. <10%
Protocol: A sensitive and rapid fluorometric assay was used to measure EROD activity ([Burke et al, 1994]). Incubation mixtures (total 1 ml) consisted of 100 mM Tris-HCl (pH 7.4), 50 μM MgCl2, 100 μM 7-ethoxyresorufin and 100 μl cell homogenate. Homogenates were prepared following treatment of cells for 24 h with compounds 1, 2, 2a, 2b, 3, 3a, 3b, 4, 4a and 4b or vehicle alone and protein content determined (n=3). Thus induction of ethoxyresorufin O-deethylation by agents under study, catalysed by CYP1A1 activity, could be determined. Alternatively, microsomes expressing recombinant CYP1A1 (0.1 mg ml^−1) provided the enzyme source for EROD catalysis, in the presence or absence of drug, in order to determine inhibition of CYP1A1 activity by compounds 1, 2, 2a, 2b, 3, 3a, 3b, 4, 4a and 4b. Incubation mixtures were pre-incubated for 5 min at 37°C before initiation of reaction by addition of NADPH (500 μM). Following further incubations at 37°C (30 min for cell homogenates, 15 min for CYP1A1 microsomes), reactions were terminated by addition of 3 ml ice-cold acetonitrile. Reaction mixtures were centrifuged (1400 r.p.m., 10 min) before analyses of supernatants. Fluorescence was read on a Perkin-Elmer LS-5 luminescence spectrometer (excitation, 530 nm; emission 585 nm). Estimation of resorufin reaction product (pmoles mg^−1 protein, pmoles 100 μg^−1 microsomes), as a measure of CYP1A1 activity, was determined following performance of a resorufin standard curve.

T-47D = assay: NCI in vitro cytotoxicity assay (SRB), T-47D; format: cell-based; conditions: Homo sapiens, T47D; 48 h exposure, sulforhodamine B assay, mean graph; read-out: Log10 GI50 (T-47D) (converted)
Protocol: as §1

SNB-75 = assay: NCI in vitro cytotoxicity assay (SRB), SNB-75; format: cell-based; conditions: Homo sapiens, 48 h exposure, sulforhodamine B assay, mean graph, read-out: Log10 GI50 (SNB-75) (converted)
Protocol: as §1

NCIH23 = assay: NCI in vitro cytotoxicity assay (SRB), NCIH23; format: cell-based; conditions: Homo sapiens, NCI-H23; 48 h exposure, sulforhodamine B assay, mean graph; read-out: Log10 GI50 (NCIH23) (converted)
Protocol: as §1

NCI-460 = assay: NCI in vitro cytotoxicity assay (SRB), NCI-460; format: cell-based; conditions: Homo sapiens, 48 h exposure, sulforhodamine B assay, mean graph, read-out: Log10 GI50 (NCI-460) (converted)
Protocol: as §1

[2] = test system: MCF-7 (ER+) human derived breast carcinoma cells; assay: Growth inhibitory assay (MTT), MCF-7; format: cell-based; conditions: MCF7, ER+ MCF-7, 3 days (72 h) treatment, n=8, representative mean, ^a = biphasic dose response
Protocol: Prodrugs were prepared as 10 mM top stocks, dissolved in dimethylsulphoxide (DMSO) or sterile ddH2O, and stored at 4°C, protected from light for a maximum period of 4 weeks. MCF-7 (ER+) and MDA 468 (ER−) human derived breast carcinoma cells, cultivated at 37°C in an atmosphere of 5% CO2 in RPMI 1640 medium supplemented with 2 mM L-glutamine and 10% foetal calf serum, were routinely subcultured twice weekly to maintain continuous logarithmic growth. Cells were seeded into 96-well microtiter plates at a density of 5×10^3 per well and allowed 24 h to adhere before drugs were introduced (final concentration 0.1 nM–100 μM, n=8). Serial drug dilutions were prepared in medium immediately prior to each assay. Viable cell masses at the time of drug addition (time-zero), and following 72 h drug exposure were determined by cell-mediated 3-(4,5-dimethylthiazol-2-yl)-2,5-diphenyltetrazolium bromide (MTT) reduction. MTT was added to each well (final concentration 400 μg ml^−1) and plates were incubated at 37°C for 4 h to allow reduction of MTT by viable cell dehydrogenases to an insoluble formazan product. Well supernatants were aspirated and cellular formazan solubilised by addition of DMSO : glycine buffer (pH 10.5) (4 : 1). Cell growth as well as drug activity were determined by measuring absorbance at 550 nm using an Anthos Labtec systems plate reader.

[3] = test system: CYP1A1 protein expression in HCT 116 cells; assay: Western blot of CYP1A1 protein, HCT 116 lysates; format: cell-based, human
Protocol: Whole cell lysates were prepared for examination of CYP1A1 protein expression from untreated MCF-7, IGROV-1 and HCT 116 cultures and following exposure of cells to compounds 1, 2, 2a, 2b, 3, 3a, 3b, 4, 4a and 4b. Following protein determination (n=3, [Bradford, 1976]) and addition of sample buffer, samples were boiled at 95°C for 5 min and solubilised proteins (50 μg) were separated by sodium dodecyl sulphate (SDS) polyacrylamide gel (10%) electrophoresis. Proteins were electroblotted to polyvinylidene difluoride (PVDF) membranes and probed for CYP1A1 protein with polyclonal antiserum specific for human CYP1A1/1A2 (Gentest Corporation). Secondary antibody was conjugated to alkaline phosphatase, and CYP1A1 was detected following brief (<10 min) incubation with bromochloroindolyl phosphate and nitro-blue tetrazolium in alkaline phosphatase buffer. Molecular weight markers and a positive control of recombinant CYP1A1 (Gentest Corporation), included in all blots, confirmed detection of 52 kDa CYP1A1 protein.

OVCAR-8 = assay: NCI in vitro cytotoxicity assay (SRB), OVCAR-8; format: cell-based; conditions: Homo sapiens, 48 h exposure, sulforhodamine B assay, mean graph, read-out: Log10 GI50 (OVCAR-8) (converted)
Protocol: as §1

U251 = assay: NCI in vitro cytotoxicity assay (SRB), U251; format: cell-based; conditions: Homo sapiens, U-251; 48 h exposure, sulforhodamine B assay, mean graph; read-out: Log10 GI50 (U251) (converted)
Protocol: as §1

Induction EROD activity [1] | GI50 [2] [µM] | CYP1A1 protein expression (Western blot) [3] | SMILES | GI50 (HCT-15) [µM] | GI50 (SF-539) [µM] | GI50 (SK-OV-3) [µM] | GI50 (M14) [µM] | GI50 (T-47D) [µM] | GI50 (SNB-75) [µM] | GI50 (NCIH23) [µM] | GI50 (NCI-460) [µM] | GI50 (OVCAR-8) [µM] | GI50 (U251) [µM]
36.64 nM resorufin mg^-1 protein | < 0.0001 | not induced | Cc1cc(-c2nc3cc(F)ccc3s2)ccc1N [Compound 2, 2-(4-Amino-3-methylphenyl)-5-fluorobenzothiazole] | 7.94 | 27.5 | 83.2 | 33.9 | < 0.01 | 17 | 51.3 | < 0.01 | > 100 | 41.7
35.56 nM resorufin mg^-1 protein | 0.0391 | not induced | Cc1cc(-c2nc3cc(F)ccc3s2)ccc1NC(=O)[C@@H](N)CCCCN [Compound 2b] | 5.25 | 14.1 | 16.2 | 2.14 | < 0.01 | 1.62 | 6.17 | 0.0708 | 11.2 | 2.14
